# Where two headings read alike, the source gives them in different places.
# Legend:
# PBCEC monolayer [1] = tested on: PBCEC monolayer
# PBCEC monolayer [2] = assay type: cell-based, porcine
# [3] = tested on: porcine brain capillary endothelial cells (PBCEC)
# [4] = pig, in vivo; cited from earlier work
# [5] = pig, in vivo, 0.6 mg; cited from earlier work
# PBCEC monolayer [6] = conditions: pig
# in vitro = conditions: pig
# PBCEC monolayer [7] = conditions: pig; remark: listed apart in the source
# Sprague-Dawley rats [8] = conditions: rat, in vivo, po; cited from earlier work
# macrophages = conditions: cited from earlier work
# Sprague-Dawley rats [9] = conditions: rat, in vivo, po; cited from earlier work; remark: listed apart in the source
# dendric cells = conditions: cited from earlier work
# [10] = tested on: normal human astrocytes (NHA); conditions: read-out: IC50, cytotoxic effects; cited from earlier work
smiles,measurement,setting,value
"CC(=O)O[C@@H]1C[C@]2(C)[C@@]3(CO)[C@H](O)C(=O)C(C)=C[C@H]3O[C@H]1[C@@]21CO1 [3-AcDON, 3-acetyldeoxynivalenol]",concentration in the apical compartment,PBCEC monolayer [1]; pig,174 ± 20 nM
same,concentration in the basolateral compartment,PBCEC monolayer [1]; pig,198 ± 16 nM
same,"enrichment in one compartment / active transport, in words",PBCEC monolayer [1]; pig,an active transfer or a noteworthy enrichment of DON or 3-AcDON can be excluded
same,"change of electrical capacitance c CL, in words",PBCEC monolayer [2],"Neither 3-AcDON, nor MON showed significant changes"
same,relative TEER after 48 h,PBCEC monolayer [2],63±9%
same,"effect in CCK-8 assay (dehydrogenase activity), in words",[3],significant increase in dehydrogenase activity
"CC1=C[C@H]2O[C@@H]3[C@H](O)C[C@](C)([C@@]2(CO)[C@H](O)C1=O)[C@]31CO1 [DON, deoxynivalenol]",time of maximum concentration in CSF and blood,[4],4.5 h
same,"enrichment in one compartment / active transport, in words",PBCEC monolayer [1],no enrichment in the apical or the basolateral compartment was detected
same,concentration in the apical compartment,PBCEC monolayer [1]; pig,211 ± 15 nM
same,concentration in the basolateral compartment,PBCEC monolayer [1]; pig,199 ± 14 nM
same,electrical capacitance c CL after 48 h,PBCEC monolayer [2],81±2%
same,"effect in CCK-8 assay (dehydrogenase activity), in words",[3],significant increase in dehydrogenase activity
same,systemic bioavailability,[5],48–65%
"O=c1cc(O)c1=O [MON, moniliformin]","p c(14C sucrose), sucrose permeability of the monolayer after mycotoxin incubation",PBCEC monolayer [6],0.19±0.05
same,Papp A→B,in vitro,1.07 ± 0.23 ×10⁻⁶ cm/s
same,"enrichment in one compartment / active transport, in words",PBCEC monolayer [1],not enriched in any compartment
same,concentration in the apical compartment,PBCEC monolayer [1]; pig,237 ± 23 nM
same,concentration in the basolateral compartment,PBCEC monolayer [1]; pig,228 ± 27 nM
same,"change of electrical capacitance c CL, in words",PBCEC monolayer [2],"Neither 3-AcDON, nor MON showed significant changes"
same,relative TEER after 48 h,PBCEC monolayer [2],94±15%
same,amount detected in the basolateral compartment,PBCEC monolayer [7],27±6%
same,amount recovered in the apical compartment,PBCEC monolayer [7],76±12%
same,"effect on cellular viability, in words",[3],no significant effects on the cellular viability
same,administered dose detected in feces,Sprague-Dawley rats [8],2%
same,administered dose excreted via urine,Sprague-Dawley rats [8],20.2-31.5%
same,lowest observed adverse effect level (LOAEL),Sprague-Dawley rats [8],3 mg/kg body weight
same,"effect on viability of macrophages, in words",macrophages,does not reduce the viability of macrophages
same,LD50 cut-off value,Sprague-Dawley rats [9],25 mg/kg body weight
same,administered dose detected in urine,Sprague-Dawley rats [9],38%
same,total recovery in feces,Sprague-Dawley rats [9],less than 1%
same,total recovery in urine,Sprague-Dawley rats [9],42%
same,reduction of cellular viability,dendric cells,20%
"CC(=O)OC[C@]12C[C@H](OC(=O)CC(C)C)C(C)=C[C@H]1O[C@@H]1[C@H](O)[C@@H](OC(C)=O)[C@@]2(C)[C@]12CO2 [T-2 toxin, reference compound]",cellular viability,[3]; 10 µM,< 2%
same,IC50,[10],24 ± 4.5 nM

# Source: article PMC4658139 (PLoS ONE, 2015)
